Where a name gives a salt, the structure may show the parent alone. Read-outs that look alike come from different tables or passages of the source.
Tests used:
[1] = tested on: typical syndrome produced by intraperitoneal injection of 0.6% aqueous acetic acid; assay: writhing test (acetic acid); type: in vivo, mice; conditions: for ED50: Mus musculus
Procedure: The test was based on the specific antagonism of the test compound to
typical syndrome produced by intraperitoneal injection of 0.6% aqueous
acetic acid. The syndrome was characterized by intermittent contractions
of the abdomen, twisting and turning of the trunk and extension of the
hind legs. A group of 5 mice was used for each dose level. The test
compound was administered 60 minutes before the injection of acetic acid
subcutaneously (sc) or orally (po).
pain response was recorded. The ED50 value was calculated according
to the LitchfieldWilcoxen's method.

[2] = cited from earlier work
[3] = cited from earlier work; remark: listed apart in the source
[4] = abstinence syndrome test (body weight after drug withdrawal); conditions: for Abstinence syndrome: subcutaneous, twice a day, male rats, body weight decrease the day after withdrawal
Procedure: Groups of male rats of Wister strain (body weight, 150 g), each group
consisting of 20 male rats, were subcutaneously given the test compound
twice a day for 4 consecutive weeks. On the next day after drug
withdrawal, body weight was measured. The symbols have the following
meanings: +++, severe decrease (about 5% decrease); ++, moderate decrease
+, mild decrease; -, no decrease. A marked decrease is taken as an […]

[5] = sc, subcutaneous, 60 minutes before acetic acid, mice, Litchfield-Wilcoxen, read-out: ED50 SC
[6] = oral, 60 minutes before acetic acid, mice, Litchfield-Wilcoxen, read-out: ED50 PO

CN1CC[C@]23c4c5ccc(O)c4O[C@H]2[C@@H](O)C=C[C@H]3[C@H]1C5 [Morphine . hydrochloride, Morphine]
ED50 ([1]; po, read-out: ED50 PO): 7 mg/kg | ED50 ([1]; sc, read-out: ED50 SC): 1.6 mg/kg

CC(C)=CCN1CCC2(C)c3cc(O)ccc3CC1C2C (stereo not drawn) [2'-hydroxy-5,9-dimethyl-2-(3"-methyl-2"-butenyl)-6,7-benzomorphan]
ED50 [1, 5]: 17.6 mg/kg | ED50 [1, 6]: 98 mg/kg

CC1C2Cc3ccc(O)cc3C1(C)CCN2CCCC(=O)c1ccc(F)cc1 (stereo not drawn) [2-[γ-(p-fluorobenzoyl)-propyl]-2'-hydroxy-5,9-dimethyl-6,7-benzomorphan]
drug addiction ([2]; U.S. Pat. No. 3,833,595): without causing drug addiction | effectiveness by route of administration ([3]; 2-[γ-(p-fluorobenzoyl)-propyl]-2'-hydroxy-5,9-dimethyl-6,7-benzomorphan): effective when administered parenterally rather than orally | analgesic activity ([3]; U.S. Pat. No. 3,833,595): significant analgesic activity

CC1C2Cc3ccc(O)cc3C1(C)CCN2C (stereo not drawn) [2'-Hydroxy-2,5,9-trimethyl-6,7-benzomorphan]
addiction liability ([2]; U.S. Pat. No. 3,138,603): has an addiction liability | Abstinence syndrome ([4]; 20 mg/kg/day for 4 weeks): ++ | analgesia ([3]; U.S. Pat. No. 3,138,603): potent analgesia

Cc1ccc2c(c1)C1(C)CCN(CCCC(=O)c3ccc(F)cc3)C(C2)C1C (stereo not drawn) [Example 1, 2-[γ-(p-Fluorobenzoyl)-propyl]-2',5,9-trimethyl-6,7-benzomorphan]
ED50 [1, 5]: 7.9 mg/kg | ED50 [1, 6]: 9.6 mg/kg | analgesic effectiveness compared with pentazocine ([1]; oral and subcutaneous administration): more effective than pentazocine | Abstinence syndrome ([4]; 40 mg/kg/day for 4 weeks): - | addictive property ([4]; as shown in Table 2): did not exhibit any addictive property
